According to ChEMBL document CHEMBL4414648, “Novel Benzohydroxamate-Based Potent and Selective Histone Deacetylase 6 (HDAC6) Inhibitors Bearing a Pentaheterocyclic Scaffold: Design, Synthesis, and Biological Evaluation” (J Med Chem, 2019):
Activity calls are given as the source filed them. No cut-off for these calls is given here.

Legend:
[1] = molecular target: Histone deacetylase 3/Nuclear receptor corepressor 2 (HDAC3/NCoR2) (Homo sapiens, UniProt O15379); assay: Inhibition of C-terminal His-tagged human HDAC3 (1 to 428 residues)/N-terminal GST tagged human NCOR2 (395 to 489) expressed in baculovirus infected sf9 insect cells pretreated with compound followed by Fluor de Lys deacetylase substrate addition by fluorescence method
[2] = molecular target: T1, Protein deacetylase HDAC6 (Homo sapiens, UniProt Q9UBN7); assay: biochemical
T1 sequence (Q9UBN7 whole entry): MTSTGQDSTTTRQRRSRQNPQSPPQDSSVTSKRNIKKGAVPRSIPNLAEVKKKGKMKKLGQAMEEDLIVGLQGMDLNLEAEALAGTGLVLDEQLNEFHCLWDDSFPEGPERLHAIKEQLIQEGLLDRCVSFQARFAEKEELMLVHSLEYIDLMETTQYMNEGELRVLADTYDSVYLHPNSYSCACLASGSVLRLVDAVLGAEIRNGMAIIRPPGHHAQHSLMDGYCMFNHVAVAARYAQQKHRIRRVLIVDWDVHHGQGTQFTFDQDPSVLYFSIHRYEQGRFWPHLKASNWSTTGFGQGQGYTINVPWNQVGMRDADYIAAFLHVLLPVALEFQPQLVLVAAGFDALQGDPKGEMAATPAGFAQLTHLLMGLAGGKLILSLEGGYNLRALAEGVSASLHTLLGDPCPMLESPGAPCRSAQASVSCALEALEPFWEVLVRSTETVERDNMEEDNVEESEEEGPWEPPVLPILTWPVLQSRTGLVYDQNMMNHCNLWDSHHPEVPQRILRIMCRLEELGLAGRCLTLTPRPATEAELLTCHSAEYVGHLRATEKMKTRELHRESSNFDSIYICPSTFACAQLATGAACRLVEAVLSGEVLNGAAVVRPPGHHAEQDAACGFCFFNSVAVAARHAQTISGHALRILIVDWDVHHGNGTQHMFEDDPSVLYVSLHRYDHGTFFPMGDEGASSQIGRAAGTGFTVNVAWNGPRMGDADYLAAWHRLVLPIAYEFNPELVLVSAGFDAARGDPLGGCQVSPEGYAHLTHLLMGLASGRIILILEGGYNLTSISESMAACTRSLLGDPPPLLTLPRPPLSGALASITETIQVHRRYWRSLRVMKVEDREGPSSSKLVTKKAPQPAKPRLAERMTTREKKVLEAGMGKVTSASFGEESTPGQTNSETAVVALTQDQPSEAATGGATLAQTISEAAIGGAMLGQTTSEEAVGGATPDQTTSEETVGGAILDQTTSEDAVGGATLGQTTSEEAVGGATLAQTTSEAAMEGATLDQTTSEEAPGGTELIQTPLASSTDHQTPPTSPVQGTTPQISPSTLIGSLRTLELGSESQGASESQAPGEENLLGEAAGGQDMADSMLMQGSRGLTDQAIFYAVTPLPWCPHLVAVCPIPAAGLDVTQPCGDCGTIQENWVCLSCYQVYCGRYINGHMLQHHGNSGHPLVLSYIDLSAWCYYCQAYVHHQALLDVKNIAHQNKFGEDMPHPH
Description: Inhibition of recombinant full length human N-terminal GST-tagged HDAC6 expressed in baculovirus infected sf9 insect cells pretreated with compound followed by Fluor de Lys deacetylase substrate addition by fluorescence method

[3] = Toxicity in C57BL/6 mouse assessed as effect on WBC level at 50 mg/kg, ip administered for 5 days/week for two cycles and measured 60 mins post last dose by beckman coulter counting method relative to control; type: organism-based; settings: in vivo, 1 h
[4] = Apparent volume of distribution at steady state in CD-1 mouse at […], iv measured within 6 hrs by LC-MS/MS analysis; type: ADME, organism-based; settings: in vivo, read-out: Vdss(app)
[5] = Toxicity in C57BL/6 mouse assessed as effect on WBC level at 10 mg/kg, ip administered for 5 days/week for two cycles and measured 60 mins post last dose by beckman coulter counting method relative to control; type: organism-based; settings: in vivo, 1 h
[6] = Toxicity in C57BL/6 mouse assessed as effect on grooming up to 50 mg/kg, ip administered for 5 days/week for two cycles; type: organism-based; settings: in vivo, 120 h
[7] = Toxicity in C57BL/6 mouse assessed as effect on stool up to 50 mg/kg, ip administered for 5 days/week for two cycles and measured daily starting from day 1; type: organism-based; settings: in vivo, 120 h
[8] = Tmax in CD-1 mouse at 5.2 mg/kg, po measured within 6 hrs by LC-MS/MS analysis; type: ADME, organism-based; settings: in vivo
[9] = Toxicity in C57BL/6 mouse assessed as effect on body weight at 30 mg/kg, ip administered for 5 days/week for two cycles and measured every other day relative to control; type: organism-based; settings: in vivo, 120 h
[10] = Toxicity in C57BL/6 mouse assessed as effect on body weight at 50 mg/kg, ip administered for 5 days/week for two cycles and measured every other day relative to control; type: organism-based; settings: in vivo, 120 h
[11] = Toxicity in C57BL/6 mouse assessed as effect on WBC level at 30 mg/kg, ip administered for 5 days/week for two cycles and measured 60 mins post last dose by beckman coulter counting method relative to control; type: organism-based; settings: in vivo, 1 h
[12] = Stability in rat plasma assessed as parent compound remaining at 100 uM after 4 hrs by LC-MS/MS analysis; type: ADME, cell-free; settings: read-out: Stability
[13] = Toxicity in C57BL/6 mouse assessed as induction of leukopenia up to 50 mg/kg, ip administered for 5 days/week for two cycles; type: organism-based; settings: in vivo, 120 h
[14] = Toxicity in C57BL/6 mouse assessed as effect on platelet level at 30 mg/kg, ip administered for 5 days/week for two cycles and measured 60 mins post last dose by cell counter method relative to control; type: organism-based; settings: in vivo, 1 h
[15] = Toxicity in ip dosed C57BL/6 mouse administered for 5 days/week for two cycles; type: organism-based; settings: in vivo
[16] = Toxicity in C57BL/6 mouse assessed as effect on body weight at 10 mg/kg, ip administered for 5 days/week for two cycles and measured every other day relative to control; type: organism-based; settings: in vivo, 120 h
697 = assay: Cytotoxicity against human 697 cells after 48 hrs by CellTiter 96 aqueous one solution assay; type: cell-based; settings: Homo sapiens, 697, 48 h
Mus musculus = assay: In vivo inhibition of HDAC6 in C57BL/6 mouse assessed as increase in acetylated tubulin level in spleen cytosolic protein extract at 30 mg/kg, ip measured after 24 hrs by ELISA; type: functional, organism-based
[17] = Stability in human liver S9 fraction assessed as parent compound remaining at 5 uM after 90 mins in presence of NADPH by LC-MS/MS analysis; type: ADME, subcellular; settings: read-out: Stability
[18] = Drug level in C57BL/6 mouse plasma at 30 mg/kg, ip measured after 24 hrs; type: ADME, organism-based; settings: in vivo, BLD = below limit of detection
[19] = Total clearance in CD-1 mouse at […], iv measured within 6 hrs by LC-MS/MS analysis; type: ADME, organism-based; settings: in vivo
[20] = Oral bioavailability in dog; type: ADME, organism-based, Canis lupus familiaris; settings: in vivo
[21] = Total AUC in CD-1 mouse at 5.2 mg/kg, po measured within 6 hrs by LC-MS/MS analysis; type: ADME, organism-based; design: dose 5.2 mg/kg, route oral, time AUCmax; settings: in vivo
[22] = Toxicity in C57BL/6 mouse assessed as effect on postural changes up to 50 mg/kg, ip administered for 5 days/week for two cycles and measured daily starting from day 1; type: organism-based; settings: in vivo, 120 h
[23] = Toxicity in C57BL/6 mouse assessed as effect on social behavior up to 50 mg/kg, ip administered for 5 days/week for two cycles; type: organism-based; settings: in vivo, 120 h
[24] = Stability in human plasma assessed as parent compound remaining at 100 uM after 4 hrs by LC-MS/MS analysis; type: ADME, cell-free; settings: read-out: Stability
[25] = Toxicity in C57BL/6 mouse assessed as effect on platelet level at 10 mg/kg, ip administered for 5 days/week for two cycles and measured 60 mins post last dose by cell counter method relative to control; type: organism-based; settings: in vivo, 1 h
[26] = Terminal half life in CD-1 mouse at […], iv measured within 6 hrs by LC-MS/MS analysis; type: ADME, organism-based; settings: in vivo, read-out: beta t1/2 (converted)
[27] = Toxicity in C57BL/6 mouse assessed as induction of diarrhea up to 50 mg/kg, ip administered for 5 days/week for two cycles and measured daily starting from day 1; type: organism-based; settings: in vivo, 120 h
[28] = Toxicity in C57BL/6 mouse assessed as effect on spasms up to 50 mg/kg, ip administered for 5 days/week for two cycles and measured daily starting from day 1; type: organism-based; settings: in vivo, 120 h
[29] = Toxicity in C57BL/6 mouse assessed as induction of piloerection up to 50 mg/kg, ip administered for 5 days/week for two cycles and measured daily starting from day 1; type: organism-based; settings: in vivo, 120 h
[30] = Toxicity in C57BL/6 mouse assessed as effect on platelet level at 50 mg/kg, ip administered for 5 days/week for two cycles and measured 60 mins post last dose by cell counter method relative to control; type: organism-based; settings: in vivo, 1 h
[31] = Toxicity in C57BL/6 mouse assessed as effect on body temperature up to 50 mg/kg, ip administered for 5 days/week for two cycles and measured daily starting from day 1; type: organism-based; settings: in vivo, 120 h
[32] = Toxicity in C57BL/6 mouse assessed as inactivity/hyperactivity up to 50 mg/kg, ip administered for 5 days/week for two cycles and measured daily starting from day 1; type: organism-based; settings: in vivo, 120 h
[33] = Stability in rat liver S9 fraction assessed as parent compound remaining at 5 uM after 90 mins in presence of NADPH by LC-MS/MS analysis; type: ADME, subcellular; settings: read-out: Stability
[34] = Cmax in CD-1 mouse at 5.2 mg/kg, po measured within 6 hrs by LC-MS/MS analysis; type: ADME, organism-based; design: dose 5.2 mg/kg, route oral; settings: in vivo
PBMC = assay: Cytotoxicity against human PBMC cells after 72 hrs by CellTiter 96 aqueous one solution assay; type: cell-based
[35] = Toxicity in C57BL/6 mouse assessed as induction of kyphosis up to 50 mg/kg, ip administered for 5 days/week for two cycles and measured daily starting from day 1; type: organism-based; settings: in vivo, 120 h
[36] = Oral bioavailability in CD-1 mouse at 5.2 mg/kg measured within 6 hrs by LC-MS/MS analysis; type: ADME, organism-based; settings: in vivo
[37] = Drug level in CD-1 mouse at […], iv measured after 5 mins by LC-MS/MS analysis; type: ADME, organism-based; settings: in vivo, read-out: Drug uptake
[38] = Oral bioavailability in rat; type: ADME, organism-based; settings: in vivo

Sequence of Histone deacetylase 3/Nuclear receptor corepressor 2 (HDAC3/NCoR2) (O15379 whole entry, the tested form may be a part): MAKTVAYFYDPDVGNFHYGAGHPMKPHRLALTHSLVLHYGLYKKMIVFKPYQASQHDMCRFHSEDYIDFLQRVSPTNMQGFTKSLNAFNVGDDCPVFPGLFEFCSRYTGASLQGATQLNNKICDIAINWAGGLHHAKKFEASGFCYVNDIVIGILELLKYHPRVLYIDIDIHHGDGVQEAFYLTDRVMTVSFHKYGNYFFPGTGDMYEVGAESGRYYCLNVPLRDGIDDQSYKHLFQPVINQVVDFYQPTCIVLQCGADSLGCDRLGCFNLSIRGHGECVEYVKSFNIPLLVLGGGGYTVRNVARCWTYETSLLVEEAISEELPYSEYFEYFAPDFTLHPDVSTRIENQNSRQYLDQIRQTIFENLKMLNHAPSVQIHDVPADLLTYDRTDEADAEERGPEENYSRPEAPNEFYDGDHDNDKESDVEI
Sequence of Histone deacetylase 3/Nuclear receptor corepressor 2 (HDAC3/NCoR2) (Q9Y618 whole entry, further chain, the tested form may be a part): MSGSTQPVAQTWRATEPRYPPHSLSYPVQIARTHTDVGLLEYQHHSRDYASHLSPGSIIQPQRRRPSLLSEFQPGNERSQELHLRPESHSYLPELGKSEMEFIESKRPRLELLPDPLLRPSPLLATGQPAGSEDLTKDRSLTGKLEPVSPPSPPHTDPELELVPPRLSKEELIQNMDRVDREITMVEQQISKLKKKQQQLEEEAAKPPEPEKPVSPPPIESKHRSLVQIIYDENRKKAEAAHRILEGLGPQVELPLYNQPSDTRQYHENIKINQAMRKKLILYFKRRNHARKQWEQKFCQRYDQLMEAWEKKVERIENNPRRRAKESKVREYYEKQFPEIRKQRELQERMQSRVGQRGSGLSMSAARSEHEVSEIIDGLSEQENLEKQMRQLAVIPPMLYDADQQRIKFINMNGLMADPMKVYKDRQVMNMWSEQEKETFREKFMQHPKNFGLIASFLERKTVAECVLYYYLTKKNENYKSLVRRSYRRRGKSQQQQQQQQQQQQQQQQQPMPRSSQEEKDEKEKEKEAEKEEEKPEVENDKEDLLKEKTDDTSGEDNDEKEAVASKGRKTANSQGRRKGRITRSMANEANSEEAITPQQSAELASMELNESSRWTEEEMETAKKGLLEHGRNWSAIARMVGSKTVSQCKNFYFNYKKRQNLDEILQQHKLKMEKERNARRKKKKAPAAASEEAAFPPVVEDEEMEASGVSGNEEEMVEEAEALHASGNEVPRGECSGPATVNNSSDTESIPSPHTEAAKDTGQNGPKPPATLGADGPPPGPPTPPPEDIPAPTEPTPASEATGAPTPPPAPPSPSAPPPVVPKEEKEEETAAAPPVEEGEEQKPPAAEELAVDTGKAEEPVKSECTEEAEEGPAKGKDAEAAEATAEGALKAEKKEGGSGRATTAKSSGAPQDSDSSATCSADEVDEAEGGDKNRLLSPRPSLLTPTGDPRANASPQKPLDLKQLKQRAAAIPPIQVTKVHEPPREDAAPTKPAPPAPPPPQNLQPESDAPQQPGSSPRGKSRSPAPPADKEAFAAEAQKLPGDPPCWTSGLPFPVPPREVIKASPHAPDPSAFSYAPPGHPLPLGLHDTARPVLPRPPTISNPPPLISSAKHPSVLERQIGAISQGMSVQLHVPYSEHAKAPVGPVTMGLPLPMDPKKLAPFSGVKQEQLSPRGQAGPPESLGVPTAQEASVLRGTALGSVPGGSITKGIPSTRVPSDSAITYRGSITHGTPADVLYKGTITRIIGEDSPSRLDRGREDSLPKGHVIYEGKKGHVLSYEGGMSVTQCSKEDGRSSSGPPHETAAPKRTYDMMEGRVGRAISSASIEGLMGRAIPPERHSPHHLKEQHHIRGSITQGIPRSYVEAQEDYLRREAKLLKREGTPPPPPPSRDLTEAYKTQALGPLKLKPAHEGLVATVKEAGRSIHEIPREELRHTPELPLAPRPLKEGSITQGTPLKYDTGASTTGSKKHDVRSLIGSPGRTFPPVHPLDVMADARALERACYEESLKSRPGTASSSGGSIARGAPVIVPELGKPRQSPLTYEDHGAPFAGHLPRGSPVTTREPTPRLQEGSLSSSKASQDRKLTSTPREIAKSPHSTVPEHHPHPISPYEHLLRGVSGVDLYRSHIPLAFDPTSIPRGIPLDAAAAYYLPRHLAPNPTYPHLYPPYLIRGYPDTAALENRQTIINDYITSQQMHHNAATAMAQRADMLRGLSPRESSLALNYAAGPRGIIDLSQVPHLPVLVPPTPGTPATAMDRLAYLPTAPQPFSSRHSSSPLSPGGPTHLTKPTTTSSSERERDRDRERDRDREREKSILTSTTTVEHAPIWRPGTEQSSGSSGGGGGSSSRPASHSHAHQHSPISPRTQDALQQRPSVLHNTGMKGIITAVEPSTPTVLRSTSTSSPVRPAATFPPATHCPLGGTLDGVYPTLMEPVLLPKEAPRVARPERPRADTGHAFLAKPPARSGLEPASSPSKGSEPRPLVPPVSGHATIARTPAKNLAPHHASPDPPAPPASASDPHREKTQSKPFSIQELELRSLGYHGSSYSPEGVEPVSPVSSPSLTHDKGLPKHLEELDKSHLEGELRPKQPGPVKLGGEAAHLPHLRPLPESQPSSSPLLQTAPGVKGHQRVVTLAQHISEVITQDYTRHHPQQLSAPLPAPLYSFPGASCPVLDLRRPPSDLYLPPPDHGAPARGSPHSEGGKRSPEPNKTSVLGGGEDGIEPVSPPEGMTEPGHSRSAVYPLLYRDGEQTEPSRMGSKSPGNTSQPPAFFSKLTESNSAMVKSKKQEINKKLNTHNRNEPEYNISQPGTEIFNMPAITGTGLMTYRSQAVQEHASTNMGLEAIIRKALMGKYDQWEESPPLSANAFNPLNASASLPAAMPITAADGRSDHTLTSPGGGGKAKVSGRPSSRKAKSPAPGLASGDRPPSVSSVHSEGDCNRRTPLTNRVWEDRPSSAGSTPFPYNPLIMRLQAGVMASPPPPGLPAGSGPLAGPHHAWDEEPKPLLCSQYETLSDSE

SMILES: Cc1nnc(-c2ccc(C(=O)NO)cc2)[nH]1
- IC50 [1]: 3560 nM
- IC50 [2]: 353 nM

SMILES: O=C(NO)c1ccc(Cn2nnnc2-c2cccs2)cc1
- Activity [3]: -15%
- Vd at 6 h [4]: 4.8 L/kg
- Activity [5]: -4%
- Activity [6]: Non-Toxic
- Activity [7]: Non-Toxic
- Tmax [8]: 4.8 min
- Activity [9]: 3.5%
- Activity [10]: 1.4%
- Activity [11]: -11%
- remaining at 4 h, 100 µM [12]: 62%
- Activity [13]: Non-Toxic
- Activity [14]: -7%
- MTD at 120 h [15]: > 50 mg/kg
- Activity [16]: 2.2%
- IC50 697: > 1000 nM
- inhibition (Mus musculus): Active
- remaining at […], 5 µM [17]: 100%
- Drug uptake [18]: Bld
- clearance at 6 h [19]: 172 mL/min/kg
- bioavailability [20]: 16%
- AUC at 6 h [21]: 94 ng·h/mL
- Activity [22]: Non-Toxic
- Activity [23]: Non-Toxic
- remaining at 4 h, 100 µM [24]: 91%
- Activity [25]: -5%
- half-life at 6 h [26]: 60 min
- Activity [27]: Non-Toxic
- Activity [28]: Non-Toxic
- Activity [29]: Non-Toxic
- Activity [30]: -1%
- Activity [31]: Non-Toxic
- Activity [32]: Non-Toxic
- remaining at […], 5 µM [33]: 82%
- Cmax [34]: 238 ng/mL
- IC50 (PBMC): > 1000 nM
- Activity [35]: Non-Toxic
- bioavailability [36]: 19%
- concentration at 5 min [37]: 685 ng/mL
- bioavailability [38]: 25%
